Reference: publication PMC9913752, “Proof-of-Concept Study of an Alpha-Fetoprotein-Derived Peptide for the Management of Canine Mammary Cancer” (Animals : an Open Access Journal from MDPI, 2023)
Where a SMILES comes first, the peptide text is derived from it. [ ]: non-standard residue; d: D form. Hyp = O=C(O)[C@@H]1C[C@@H](O)CN1

Assay: 8-day repeat-dose study, tolerability (blood chemistry, hematology, adverse events) in tumor-bearing dogs
Format: in vivo, dog
Settings: for ALP / ALT / AST / Albumin / BUN / Bicarbonate / Bilirubin Conj. / Calcium / Chloride / Cholesterol / Creatine Kinase / GGT / Globulin / Glucose / HCT / HGB / MCH / MCV / Phosphorous / Platelets / Potassium / RBC / Sodium / Total Bilirubin / Total Protein / WBC: Post: 30 min after last injection on day 8, 10 mg s.c. once daily for 8 days
Text: Previous studies utilizing repeat dosing in mice and rats established safe starting doses for studies using dogs. Female dogs with one or more spontaneously occurring mammary gland tumors greater than approximately 2 cm in maximum diameter, presenting to the Cancer Institute at the Schwarzman Animal Medical Center in New York City, were screened for inclusion in the study. […] All dogs underwent complete clinical staging, consisting of a complete blood count with cell differential, clinical chemistry, and urinalysis. Dogs were administered AFPep 10 mg s.c. once daily for 8 consecutive days. Tumors were biopsied prior to the administration of AFPep and were surgically removed on day 8 after the last injection of AFPep. Blood levels of AFPep were measured before and 30 minutes following its administration on the first day and eighth day of treatment with AFPep. Histopathology was obtained on all mammary gland tumors. Tolerability was assessed using the Veterinary Cooperative Oncology Group Common Terminology Criteria for Adverse Events. Blood chemistry and hematology analyses were performed at IDEXX Laboratories Inc. (Westbrook, ME, USA), using the Sysmex XT and Beckman AU 5800 systems. This study was approved by the Schwarzman Animal Medical Center IACUC and informed consent was obtained in writing from all owners.

CC(C)[C@@H]1NC(=O)[C@@H]2C[C@@H](O)CN2C(=O)[C@H]([C@@H](C)O)NC(=O)[C@H](CCCCN)NC(=O)[C@H](CCC(=O)O)NC(=O)[C@H](CC(N)=O)NC(=O)CNC(=O)[C@@H]2C[C@@H](O)CN2C(=O)[C@H](CC(N)=O)NC1=O [AFPep] (cyclo(EKT[Hyp]VN[Hyp]GN))
AFPep-related adverse events (VCOG-CTCAE) (10 mg s.c. once a day for 8 days, 6 dogs with mammary cancer): grade-1 injection site reactions in three out of six dogs
complete blood counts with cell differential, clinical chemistry, and urinalysis (30 minutes before first exposure vs 30 minutes after the 8-day administration, 10 mg s.c. once daily, 6 dogs): unchanged
ALP (Dog 1): 261 U/L
ALT (Dog 1): 35 U/L
AST (Dog 1): 14 U/L
Albumin (Dog 1): 3 g/dL
BUN (Dog 1): 27 mg/dL
Bicarbonate (Dog 1): 21 mmol/L
Bilirubin Conj. (Dog 1): 0.1 mg/dL
Calcium (Dog 1): 10 mg/dL
Chloride (Dog 1): 111 mmol/L
Cholesterol (Dog 1): 277 mg/dL
Creatine Kinase (Dog 1): 120 U/L
GGT (Dog 1): 4 U/L
Globulin (Dog 1): 3 g/dL
Glucose (Dog 1): 107 mg/dL
HCT (Dog 1): 39%
HGB (Dog 1): 13 g/dL
MCH (Dog 1): 24 pg
MCV (Dog 1): 68 fL
Phosphorous (Dog 1): 4 mg/dL
Platelets (Dog 1): 438 10^3/µL
Potassium (Dog 1): 4 mmol/L
RBC (Dog 1): 6 10^6/µL
Sodium (Dog 1): 145 mmol/L
Total Bilirubin (Dog 1): 0.1 mg/dL
Total Protein (Dog 1): 6 g/dL
WBC (Dog 1): 18 10^3/µL
ALP (Dog 2): 115 U/L
ALT (Dog 2): 14 U/L
AST (Dog 2): 20 U/L
Albumin (Dog 2): 4 g/dL
BUN (Dog 2): 14 mg/dL
Bicarbonate (Dog 2): 23 mmol/L
Bilirubin Conj. (Dog 2): 0.1 mg/dL
Calcium (Dog 2): 11 mg/dL
Chloride (Dog 2): 108 mmol/L
Creatine Kinase (Dog 2): 225 U/L
GGT (Dog 2): 6 U/L
Globulin (Dog 2): 4 g/dL
Glucose (Dog 2): 178 mg/dL
HCT (Dog 2): 46%
HGB (Dog 2): 17 g/dL
MCH (Dog 2): 23 pg
MCV (Dog 2): 65 fL
Phosphorous (Dog 2): 3 mg/dL
Platelets (Dog 2): 700 10^3/µL
Potassium (Dog 2): 5 mmol/L
RBC (Dog 2): 7 10^6/µL
Sodium (Dog 2): 146 mmol/L
Total Bilirubin (Dog 2): 0.1 mg/dL
Total Protein (Dog 2): 8 g/dL
WBC (Dog 2): 7 10^3/µL
ALP (Dog 3): 178 U/L
ALT (Dog 3): 39 U/L
AST (Dog 3): 15 U/L
Albumin (Dog 3): 4 g/dL
BUN (Dog 3): 14 mg/dL
Bicarbonate (Dog 3): 23 mmol/L
Bilirubin Conj. (Dog 3): 0.1 mg/dL
Calcium (Dog 3): 9 mg/dL
Chloride (Dog 3): 108 mmol/L
Cholesterol (Dog 3): 273 mg/dL
Creatine Kinase (Dog 3): 115 U/L
GGT (Dog 3): 4 U/L
Globulin (Dog 3): 3 g/dL
Glucose (Dog 3): 107 mg/dL
HCT (Dog 3): 46%
HGB (Dog 3): 17 g/dL
MCH (Dog 3): 23 pg
MCV (Dog 3): 64 fL
Phosphorous (Dog 3): 4 mg/dL
Platelets (Dog 3): 558 10^3/µL
Potassium (Dog 3): 5 mmol/L
RBC (Dog 3): 7 10^6/µL
Sodium (Dog 3): 145 mmol/L
Total Bilirubin (Dog 3): 0.1 mg/dL
Total Protein (Dog 3): 7 g/dL
WBC (Dog 3): 6 10^3/µL
ALP (Dog 4): 148 U/L
ALT (Dog 4): 60 U/L
AST (Dog 4): 23 U/L
Albumin (Dog 4): 3 g/dL
BUN (Dog 4): 24 mg/dL
Bicarbonate (Dog 4): 17 mmol/L
Bilirubin Conj. (Dog 4): 0.1 mg/dL
Calcium (Dog 4): 10 mg/dL
Chloride (Dog 4): 114 mmol/L
Cholesterol (Dog 4): 451 mg/dL
Creatine Kinase (Dog 4): 169 U/L
GGT (Dog 4): 6 U/L
Globulin (Dog 4): 4 g/dL
Glucose (Dog 4): 92 mg/dL
HCT (Dog 4): 51%
HGB (Dog 4): 18 g/dL
MCH (Dog 4): 23 pg
MCV (Dog 4): 62 fL
Phosphorous (Dog 4): 3 mg/dL
Platelets (Dog 4): 485 10^3/µL
Potassium (Dog 4): 4.4 mmol/L
RBC (Dog 4): 8 10^6/µL
Sodium (Dog 4): 147 mmol/L
Total Bilirubin (Dog 4): 0.1 mg/dL
Total Protein (Dog 4): 6 g/dL
WBC (Dog 4): 13 10^3/µL
ALP (Dog 5): 15 U/L
ALT (Dog 5): 29 U/L
AST (Dog 5): 26 U/L
Albumin (Dog 5): 4 g/dL
BUN (Dog 5): 15 mg/dL
Bicarbonate (Dog 5): 21 mmol/L
Bilirubin Conj. (Dog 5): 0.1 mg/dL
Calcium (Dog 5): 10 mg/dL
Chloride (Dog 5): 110 mmol/L
Cholesterol (Dog 5): 373 mg/dL
Creatine Kinase (Dog 5): 138 U/L
GGT (Dog 5): 18 U/L
Globulin (Dog 5): 3 g/dL
Glucose (Dog 5): 88 mg/dL
HCT (Dog 5): 48%
HGB (Dog 5): 18 g/dL
MCH (Dog 5): 25 pg
MCV (Dog 5): 67 fL
Phosphorous (Dog 5): 3 mg/dL
Platelets (Dog 5): 462 10^3/µL
Potassium (Dog 5): 5 mmol/L
RBC (Dog 5): 7 10^6/µL
Sodium (Dog 5): 143 mmol/L
Total Bilirubin (Dog 5): 0.1 mg/dL
Total Protein (Dog 5): 7 g/dL
WBC (Dog 5): 7 10^3/µL
ALP (Dog 6): 19 U/L
ALT (Dog 6): 41 U/L
AST (Dog 6): 18 U/L
Albumin (Dog 6): 3 g/dL
BUN (Dog 6): 30 mg/dL
Bicarbonate (Dog 6): 21 mmol/L
Bilirubin Conj. (Dog 6): 0.1 mg/dL
Calcium (Dog 6): 10 mg/dL
Chloride (Dog 6): 114 mmol/L
Cholesterol (Dog 6): 198 mg/dL
Creatine Kinase (Dog 6): 80 U/L
GGT (Dog 6): 5 U/L
Globulin (Dog 6): 3 g/dL
Glucose (Dog 6): 81 mg/dL
HCT (Dog 6): 43%
HGB (Dog 6): 15 g/dL
MCH (Dog 6): 25 pg
MCV (Dog 6): 74 fL
Phosphorous (Dog 6): 6 mg/dL
Platelets (Dog 6): 519 10^3/µL
Potassium (Dog 6): 4 mmol/L
RBC (Dog 6): 6 10^6/µL
Sodium (Dog 6): 143 mmol/L
Total Bilirubin (Dog 6): 0.1 mg/dL
Total Protein (Dog 6): 6 g/dL
WBC (Dog 6): 13 10^3/µL
